In patent US20110207723A1, “NOVEL FUSED AMINODIHYDROTHIAZINE DERIVATIVE” (EISAI R&D MANAGEMENT CO., LTD., priority 2008, published 2011):

What follows are molecules tested on Aβ42 production (assay: Quantification of Aβ peptide in culture of neurons from rat fetus brain (Aβ42 ELISA)). Conditions: Neuron, 72 h, rat primary neuronal culture (embryonic day 18 Wistar rat cerebral cortex), medium collected three days after addition of compound, read-out: Aβ42 production reducing effect IC50.
Format: cell-based
In short: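 Primary cortical neurons from E18 Wistar rat embryos, cultured 4 days in Neurobasal/B27/2-ME, then treated 3 days with compound in Neurobasal/B27 (final DMSO 1% or less; DMSO control). Conditioned medium collected; Aβx-42 measured undiluted by sandwich ELISA kit.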
`NC1=N[C@@]2(c3cc(NC(=O)c4ncc(F)cc4F)ccc3F)COCC[C@H]2CS1` (single isomer, unassigned) [Example 51, N-[3-((4aR*,8aS*)-2-amino-4,4a,5,6-tetrahydro-7-oxa-3-thia-1-azanaphthalen-8a-yl)-4-fluorophenyl]-3,5-difluoropyridine-2-carboxamide] gave an IC50 of 6 nM. Molecule `NC1=N[C@@]2(c3cc(NC(=O)c4ncc(Cl)cc4Cl)ccc3F)COCC[C@H]2CS1` (single isomer, unassigned) [Example 52, N-[3-((4aR*,8aS*)-2-amino-4,4a,5,6-tetrahydro-7-oxa-3-thia-1-azanaphthalen-8a-yl)-4-fluorophenyl]-3,5-dichloropyridine-2-carboxamide] has an IC50 of 2 nM. `NC1=N[C@@]2(c3cc(NC(=O)c4ccc(F)cn4)ccc3F)COCC[C@H]2CS1` (single isomer, unassigned) [Example 53, N-[3-((4aR*,8aS*)-2-amino-4,4a,5,6-tetrahydro-7-oxa-3-thia-1-azanaphthalen-8a-yl)-4-fluorophenyl]-5-fluoropyridine-2-carboxamide] was tested, and the IC50 was 5.6 nM. Molecule `NC1=N[C@@]2(c3cc(NC(=O)c4ncc(Br)cc4Br)ccc3F)COCC[C@H]2CS1` (single isomer, unassigned) [Example 54, N-[3-((4aR*,8aS*)-2-amino-4,4a,5,6-tetrahydro-7-oxa-3-thia-1-azanaphthalen-8a-yl)-4-fluorophenyl]-3,5-dibromopyridine-2-carboxamide] has an IC50 of 2 nM. In the case of `NC1=N[C@@]2(c3cc(NC(=O)c4ccc(C(F)(F)F)cn4)ccc3F)COCC[C@H]2CS1` (single isomer, unassigned) [Example 55, N-[3-((4aR*,8aS*)-2-amino-4,4a,5,6-tetrahydro-7-oxa-3-thia-1-azanaphthalen-8a-yl)-4-fluorophenyl]-5-trifluoromethylpyridine-2-carboxamide], the IC50 is reported as 1.4 nM. `NC1=N[C@@]2(c3cc(NC(=O)c4ccc(C(F)F)cn4)ccc3F)COCC[C@H]2CS1` (single isomer, unassigned) [Example 56, N-[3-((4aR*,8aS*)-2-amino-4,4a,5,6-tetrahydro-7-oxa-3-thia-1-azanaphthalen-8a-yl)-4-fluorophenyl]-5-difluoromethylpyridine-2-carboxamide] was tested, and the IC50 was 3 nM. For `NC1=N[C@@]2(c3cc(NC(=O)c4cnc(C(F)F)cn4)ccc3F)COCC[C@H]2CS1` (single isomer, unassigned) [Example 57, N-[3-((4aR*,8aS*)-2-amino-4,4a,5,6-tetrahydro-7-oxa-3-thia-1-azanaphthalen-8a-yl)-4-fluorophenyl]-5-difluoromethylpyrazine-2-carboxamide], the IC50 was 2 nM. `NC1=N[C@@]2(c3cc(NC(=O)c4ccc(OC(F)F)cn4)ccc3F)COCC[C@H]2CS1` (single isomer, unassigned) [Example 58, N-[3-((4aR*,8aS*)-2-amino-4,4a,5,6-tetrahydro-7-oxa-3-thia-1-azanaphthalen-8a-yl)-4-fluorophenyl]-5-difluoromethoxypyridine-2-carboxamide] showed an IC50 of 4 nM. `N#Cc1ccc(C(=O)Nc2csc(C34COCCC3CSC(N)=N4)c2)nc1` (stereo in doubt) [Example 64, N-[5-((4aR*,8aS*)-2-amino-4,4a,5,6-tetrahydro-7-oxa-3-thia-1-azanaphthalen-8a-yl)thiophen-3-yl]-5-cyanopyridine-2-carboxamide] was tested, and the IC50 was 14 nM. With `N#Cc1ccc(C(=O)Nc2ccc(F)c([C@]34COC[C@@H](F)[C@H]3CSC(N)=N4)c2)nc1` [Example 16, N-[3-((4aS,5S,8aS)-2-amino-5-fluoro-4,4a,5,6-tetrahydro-7-oxa-3-thia-1-azanaphthalen-8a-yl)-4-fluorophenyl]-5-cyanopyridine-2-carboxamide] the IC50 was 1.1 nM. Molecule `NC1=N[C@@]2(c3cc(NC(=O)c4cnc(C(F)F)cn4)ccc3F)COC[C@@H](F)[C@H]2CS1` [Example 17, N-[3-((4aS,5S,8aS)-2-amino-5-fluoro-4,4a,5,6-tetrahydro-7-oxa-3-thia-1-azanaphthalen-8a-yl)-4-fluorophenyl]-5-difluoromethylpyrazine-2-carboxamide] has an IC50 of 4 nM.
